The source of these data is patent publication US7795457B2, “Carbamate compounds” (Kosan Biosciences Incorporated, priority 2007, dated 2010).

The test system of experiment [1] is NCI-ADR. As to the kind of experiment: Inhibition of tumor cell proliferation, NCI-ADR. The experiment is classed as cell-based. The conditions noted are these: Homo sapiens, NCI/ADR-RES, read-out: IC50, nM, NCI-ADR. The protocol: (§1) The biological activity of compounds of this invention was evaluated by measuring their inhibitory effect on the proliferation of various tumor cell lines. HCT-116 is a human colon cancer cell line. LNCap is a human prostate cancer cell line. SiHa is an HPV-16 positive human cervical cancer line.
(§2) Table D presents additional data for the activity of compounds A-1 and A-4 against various cell lines. In some instances, comparative data against leptomycin B (LMB) and/or compound VI (Dong et al., US 2005/0272727 A1 (2005) is also provided.
(§3) The additional cell lines tested against represent a variety of different cancers: bladder cancer (UM-UC-3), breast cancer (BT474, HCC1937, MDA-MB468, NCI-ADR), CNS cancer (U87MG (glioma), SKNSH (neuroblastoma)), colon cancer (LoVo, LS411N, LS513), head and neck cancer (CAL-27, FaDu), leukemia (CCRF-CEM, MOLT-4), liver cancer (HepG2), lung cancer (A549, NCI-H23, NCI-H358), melanoma (Colo829), ovarian cancer (OVCAR-4), pancreatic cancer (BxPC-3, Mia-PaCa2), prostate cancer (22Rv1, PC-3), and renal cancer (A-498, Caki-1).

Experiment [2] concerns SiHa. In words: Inhibition of tumor cell proliferation, SiHa. The conditions noted are these: Homo sapiens, SiHa, read-out: Cancer Cell Line (IC50, nM) SiHa. The experiment is classed as cell-based, human. The protocol:
as §1

The test system of experiment [3] is HCT-116. As to the kind of experiment: Inhibition of tumor cell proliferation, HCT-116. It is filed as cell-based, human. The conditions noted are these: Homo sapiens, read-out: Cancer Cell Line (IC50, nM) HCT-116. The protocol:
as §1

Experiment [4] deals with A549. As to the kind of experiment: Inhibition of tumor cell proliferation, A549. The experiment is classed as cell-based. The conditions noted are these: Homo sapiens, A549, 1 h, read-out: IC50, nM, A549. The protocol:
as §1, §2, §3

In experiment [5] the test system is Caki-1. In words: Inhibition of tumor cell proliferation, Caki-1. The experiment is classed as cell-based. The conditions noted are these: Homo sapiens, exposure time 1 h. The protocol: as §1, §2, §3
Experiment [6] relates to A-498. As to the kind of experiment: Inhibition of tumor cell proliferation, A-498. The experiment is classed as cell-based. The conditions noted are these: Homo sapiens, A498; exposure time 1 h. The protocol:
as §1, §2, §3

The test system of experiment [7] is LoVo. As to the kind of experiment: Inhibition of tumor cell proliferation, LoVo. It is filed as cell-based. The conditions noted are these: Homo sapiens, exposure time 1 h. The protocol:
as §1, §2, §3

For experiment [8], the system named is LNCap. As to the kind of experiment: Inhibition of tumor cell proliferation, LNCap. The conditions noted are these: Homo sapiens, LNCaP, read-out: Cancer Cell Line (IC50, nM) LNCap. The experiment is classed as cell-based, human. The protocol:
as §1

In experiment [9] the test system is CCRF-CEM. As to the kind of experiment: Inhibition of tumor cell proliferation, CCRF-CEM. The experiment is classed as cell-based. The conditions noted are these: Homo sapiens, exposure time 72 h. The protocol: as §1, §2, §3
The subject of experiment [10] is CRM1 substrate RanBP1. As to the kind of experiment: Nuclear export block (RanBP1 localization, recovery after compound removal). The experiment is classed as cell-based. The conditions noted are these: recovery of cytoplasmic RanBP1 localization after compound washout (typically 1 h exposure; 8, 24 or 48 h recovery). The protocol:
The nuclear export blocking capability of compounds of this invention was evaluated as follows:
1-5×10^4 cells were seeded onto 12 mm glass coverslips or wells of a chamber slide (for example, Lab-Tek #177445). Cells were grown overnight at 37° C. to allow cells to attach to the surface. Media was removed and replaced with media containing the desired test compound and incubated the required time period (typically 1 h). For recovery experiments, cells were washed with PBS or media and incubated in media without test compound for the desired recovery periods (typically 8, 24, or 48 h). The media was removed and coverslips/wells were washed with PBS pH 7.4 for 1 minute. Coverslips or slides were fixed with 3.7% formaldehyde in PBS for 20 minutes at room temperature, washed three times in PBS, and stained for the CRM1 substrate RanBP1.
Coverslips or chamber slides were permeabilized and blocked in 10% donkey serum, 0.1% Triton X-100 in PBS for 30 minutes at room temperature. Primary antibodies were diluted in PBS and incubated for 1 hour at room temperature: goat-anti-RanBP1 (Santa Cruz Biotechnology, sc-1160; 1:50 dilution) and mouse-anti-tubulin (Sigma, T9026; 1:400). Cells were washed 3×5 minutes in PBS. Secondary antibodies donkey-anti-goat Cy3 (705-165-147, Jackson Immunoresearch) and donkey anti-mouse FITC (715-095-150, Jackson Immunoresearch) were diluted 1:200 in PBS and incubated for 1 hour at room temperature. Secondary antibody was removed and cells were stained with a nuclear dye such as DAPI (Sigma, D8417; 2.5 ug/mL in PBS) or Hoechst 33342 (Molecular Probes, H3570; 100 ng/mL in PBS) for 5 minutes at room temperature. Cells were washed 3×5 minutes in PBS and coverslips were mounted with FluorSave (EMD Biosciences, 80058-108). Nuclear (N) or cytoplasmic (C) localization of RanBP1 was examined using a 40× objective on a Zeiss Axiovert 200 inverted epiflourescence microscope. Nuclear localization (N>C) was confirmed after the initial drugging period.

The test system of experiment [11] is MOLT-4. In words: Inhibition of tumor cell proliferation, MOLT-4. It is filed as cell-based. The conditions noted are these: Homo sapiens, exposure time 72 h. The protocol:
as §1, §2, §3

Experiment [12] deals with PC-3. In words: Inhibition of tumor cell proliferation, PC-3. It is filed as cell-based. The conditions noted are these: Homo sapiens. The protocol: as §1, §2, §3
For experiment [13], the system named is MDA-MB-468. As to the kind of experiment: Inhibition of tumor cell proliferation, MDA-MB-468. The experiment is classed as cell-based. The conditions noted are these: Homo sapiens, exposure time 1 h. The protocol:
as §1, §2, §3

For experiment [14], the system named is SKNSH. As to the kind of experiment: Inhibition of tumor cell proliferation, SKNSH. It is filed as cell-based. The conditions noted are these: Homo sapiens, SK-N-SH, read-out: IC50, nM, SKNSH. The protocol: as §1, §2, §3

Broadly, the IC50 is the concentration needed to halve the response being measured.

Each structure is given as a SMILES string. Where two headings read alike, the source gives them in different places.

With `CC(=C/[C@H](C)C/C=C/C(C)=C/[C@@H](C)C(=O)[C@@H](C)[C@H](O)[C@@H](C)C/C(C)=C/COC(=O)NCc1ccccc1)/C=C/[C@H]1CC=CC(=O)O1` [Compound A-1], the IC50 is 194 nM in [1] (1 h); 20.6 nM in experiment [1] (72 h); 3.6 nM in experiment [2] (1 h); 1.1 nM in experiment [2] (72 h); 14.9 nM in experiment [3] (HCT-116, 1 h); 3.3 nM in [3] (HCT-116, 72 h). In addition, the IC50 came to 23.5 nM in experiment [4]; 6.6 nM in experiment [5]; 16 nM in [6]; 10.3 nM in experiment [7]; 4.7 nM in experiment [8] (1 h); 1.8 nM in experiment [8] (72 h). The IC50 in experiment [9] was determined as 4.2 nM; in experiment [11], 3.2 nM; in [12] (exposure time 1 h), 7.4 nM; in experiment [12] (exposure time 72 h), 2.7 nM; in experiment [13], 30.6 nM; in [14] (1 h), 5.1 nM. In experiment [14] (72 h), the half-maximal inhibitory concentration (IC50) was 1.5 nM. Moreover, the “Nuclear Export Block” value in [10] is listed as “Slow recovery”.
